Reference: ChEMBL document CHEMBL1135441, “Elevation of ligand binding to muscarinic M(2) acetylcholine receptors by bis(ammonio)alkane-type allosteric modulators” (J Med Chem, 2002)

biological target: Muscarinic acetylcholine receptor M2 (Sus scrofa) (UniProt P06199); test: Binding of [3H]N-methylscopolamine at porcine heart Muscarinic acetylcholine receptor M2 and negative log of the equilibrium dissociation constant was reported
Sequence (P06199 whole entry, looked up): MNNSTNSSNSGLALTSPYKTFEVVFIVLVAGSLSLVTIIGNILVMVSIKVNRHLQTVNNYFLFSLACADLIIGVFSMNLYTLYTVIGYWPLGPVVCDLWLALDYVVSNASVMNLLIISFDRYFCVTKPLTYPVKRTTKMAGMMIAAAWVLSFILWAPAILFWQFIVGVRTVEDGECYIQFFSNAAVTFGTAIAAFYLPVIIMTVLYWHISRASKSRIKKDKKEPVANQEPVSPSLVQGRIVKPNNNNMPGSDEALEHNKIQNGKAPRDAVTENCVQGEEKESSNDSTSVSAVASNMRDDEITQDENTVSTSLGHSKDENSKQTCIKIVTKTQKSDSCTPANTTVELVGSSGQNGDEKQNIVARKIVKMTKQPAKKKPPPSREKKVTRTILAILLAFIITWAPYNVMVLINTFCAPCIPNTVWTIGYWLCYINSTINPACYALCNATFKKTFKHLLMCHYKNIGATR

SMILES | pKA
CC(C)(CN1C(=O)c2ccccc2C1=O)C[N+](C)(C)CCCCCC[N+](C)(C)CCCN1C(=O)c2ccccc2C1=O | 6.9
CC(C)(CN1C(=O)c2ccccc2C1=O)C[N+](C)(C)CCCCCC[N+](C)(C)CC(C)(C)CN1C(=O)c2ccccc2C1=O | 7.08
C[N+](C)(CCCCCC[N+](C)(C)CCCN1C(=O)c2ccccc2C1=O)CCCN1C(=O)c2ccccc2C1=O | 6.53
Cc1ccc2c(c1)C(=O)N(CCC[N+](C)(C)CCCCCC[N+](C)(C)CCCN1C(=O)c3ccccc3C1=O)C2=O | 6.89

The next lines start with the values.

pKA | SMILES
7.26 | Cc1ccc2c(c1)C(=O)N(CC(C)(C)C[N+](C)(C)CCCCCC[N+](C)(C)CCCN1C(=O)c3ccccc3C1=O)C2=O
7.08 | Cc1ccc2c(c1)C(=O)N(CCC[N+](C)(C)CCCCCC[N+](C)(C)CCCN1C(=O)c3ccc(C)cc3C1=O)C2=O
7.2 | Cc1ccc2c(c1)C(=O)N(CCC[N+](C)(C)CCCCCC[N+](C)(C)CC(C)(C)CN1C(=O)c3ccccc3C1=O)C2=O
7.21 | Cc1ccc2c(c1)C(=O)N(CC(C)(C)C[N+](C)(C)CCCCCC[N+](C)(C)CC(C)(C)CN1C(=O)c3ccc(C)cc3C1=O)C2=O
7.41 | Cc1ccc2c(c1)C(=O)N(CCC[N+](C)(C)CCCCCC[N+](C)(C)CC(C)(C)CN1C(=O)c3ccc(C)cc3C1=O)C2=O
